Results: patent US20240165092A1, “USE OF AN OREXIN 2 RECEPTOR AGONIST FOR POST OPERATION RECOVERY” (Takeda Pharmaceutical Limited Company, priority 2021, published 2024)

What was measured:
Type in all cases: in vivo, rat
Male Sprague-Dawley rats [1] = assay: Time to recovery from isoflurane-induced anesthesia assessed by righting reflex; details: for Duration of anesthesia (min) (Mean): isoflurane anesthesia 30 min, vehicle 6.15
Protocol: Male Sprague-Dawley rats, 8 weeks-age, were purchased from Charles river Japan. To induce and maintain isoflurane anesthesia, rats were placed in a pre-filled anesthesia induction chamber isoflurane 4%. The induction of anesthesia was defined as the rat's inability to right itself into the prone position (loss of righting reflex: LORR) after it was placed in the supine position in a cage. After confirming LORR, rats were exposed to 3% isoflurane using a facemask and maintained for 30 min. Fifteen minutes after LORR, Compound (I) was administered subcutaneously (SC) to rats in a volume of 5 mL/kg of body weight (BW). As vehicle-treated control, 10.5% (w/v) Captisol® (CyDex Pharmaceuticals, KS, USA)/1.5 mM Na2HIPO4 in distilled water was administered to rats. Thirty minutes after confirming LORR, isoflurane inhalation was terminated and time to recovery from LORR was recorded as duration of anesthesia. Body temperature was maintained at 37.0-37.5° C. using a heating pad during and after anesthesia.

Male Sprague-Dawley rats [2] = assay: Time to recovery from propofol-induced anesthesia assessed by righting reflex; details: for Duration of anesthesia (min) (Mean): propofol anesthesia 30 min, vehicle 12.8
Protocol: Male Sprague-Dawley rats, 8 weeks-age, were purchased from Charles river Japan. To induce and maintain propofol anesthesia, a bolus dose of propofol (10 mg/kg) was administered intravenously to rats. After confirming LORR, rats were gently placed in the supine position on a heating pad to maintain body temperature at 37.0-37.5° C. Subsequently, continuous administration of propofol at 60 mg/kg/hr was performed for 30 min. Fifteen minutes after LORR, Compound (I) was administered SC to rats in a volume of 5 mL/kg of BW. As vehicle-treated control, 10.5% (w/v) Captisol®/1.5 mM Na2HPO4 in distilled water was administered to rats. Thirty minutes after confirming LORR, propofol infusion was terminated and time to recovery from LORR was recorded as duration of anesthesia.

Male Sprague-Dawley rats [3] = assay: Fentanyl (0.1 mg/kg)-induced sedation assessed by righting reflex; details: for Duration of sedation (min) (Mean): fentanyl 0.1 mg/kg SC, vehicle 88.8
Protocol: Male Sprague-Dawley rats, 8 weeks-age, were purchased from Charles river Japan. In this study, LORR was used as an indicator of sedation. […] As vehicle-treated control, 10.5% (w/v) Captisol®/1.5 mM Na2HIPO4 in distilled water was administered. The time to recovery from LORR was recorded as duration of sedation.

Male Sprague-Dawley rats [4] = assay: Fentanyl (0.1 mg/kg)-induced respiratory depression assessed by whole body plethysmography (WBP)
Male Sprague-Dawley rats [5] = assay: Fentanyl-induced analgesic effects in formalin test; details: for Phase I (No. of flinching) / Phase II (No. of flinching): formalin test; for Phase I (No. of flinching): 1 to 11 min; for Phase II (No. of flinching): 16 to 61 min
Male Sprague-Dawley rats [6] = assay: Fentanyl-induced analgesic effects in pain model of postoperative skin incision
[7] = Compound (I) 1.0 mg/kg SC 15 min after LORR
[8] = Compound (I) 10 mg/kg SC 15 min before fentanyl 0.1 mg/kg SC, 0 to 30 min after fentanyl
[9] = Compound (I) 3.0 mg/kg + fentanyl 0.045 mg/kg
[10] = Compound (I) 10 mg/kg + fentanyl 0.045 mg/kg

Question: How did the “Duration of anesthesia (min) (Mean)” value (Male Sprague-Dawley rats [1]; Compound (I) 0.3 mg/kg SC 15 min after LORR) turn out when COC(=O)N1CCCC(NS(C)(=O)=O)C1COC1CCC(c2ccccc2)CC1 (stereo not drawn) [Compound (I), methyl 3-((methylsulfonyl)amino)-2-(((4-phenylcyclohexyl)oxy)methyl)piperidine-1-carboxylate] was run?
Answer: 3.92 min

Question: And the “Duration of anesthesia (min) (Mean)” value (Male Sprague-Dawley rats [1]; [7])?
Answer: 3.06 min

Question: What about the “time to recovery from isoflurane-induced anesthesia assessed by righting reflex” value (Male Sprague-Dawley rats [1]; result in words) of the same molecule?
Answer: reduced time to recovery

Question: What about the “Duration of anesthesia (min) (Mean)” value (Male Sprague-Dawley rats [2]; [7]) of the same molecule?
Answer: 11.7 min

Question: And the “Duration of anesthesia (min) (Mean)” value (Male Sprague-Dawley rats [2]; Compound (I) 3.0 mg/kg SC 15 min after LORR)?
Answer: 6.70 min

Question: And the “Duration of anesthesia (min) (Mean)” value (Male Sprague-Dawley rats [2]; Compound (I) 10 mg/kg SC 15 min after LORR)?
Answer: 6.00 min

Question: What about the “time to recovery from propofol-induced anesthesia assessed by righting reflex” value (Male Sprague-Dawley rats [2]; result in words) of the same molecule?
Answer: reduced time to recovery

Question: What about the “Duration of sedation (min) (Mean)” value (Male Sprague-Dawley rats [3]; Compound (I) 1.0 mg/kg SC 10 min after fentanyl) of the same molecule?
Answer: 81.3 min

Question: And the “Duration of sedation (min) (Mean)” value (Male Sprague-Dawley rats [3]; Compound (I) 3.0 mg/kg SC 10 min after fentanyl)?
Answer: 67.0 min

Question: What about the “Duration of sedation (min) (Mean)” value (Male Sprague-Dawley rats [3]; Compound (I) 10 mg/kg SC 10 min after fentanyl) of the same molecule?
Answer: 42.9 min

Question: What about the “duration of fentanyl-induced sedation assessed by righting reflex” value (Male Sprague-Dawley rats [3]; result in words) of the same molecule?
Answer: reduced duration of fentanyl-induced sedation

Question: What about the “MV (mL/min) (Mean)” value (Male Sprague-Dawley rats [4]; [8]) of the same molecule?
Answer: 206 mL/min

Question: What about the “RR (breaths/min) (Mean)” value (Male Sprague-Dawley rats [4]; [8]) of the same molecule?
Answer: 144 breaths/min

Question: What about the “TV (mL/stroke) (Mean)” value (Male Sprague-Dawley rats [4]; [8]) of the same molecule?
Answer: 1.61 mL/stroke

Question: And the fentanyl-induced respiratory depression (Male Sprague-Dawley rats [4]; result in words)?
Answer: suppressed fentanyl-induced respiratory depression

Question: And the “RR, TV and MV compared to that of vehicle group” value (Male Sprague-Dawley rats [4]; with fentanyl 0.1 mg/kg, result in words)?
Answer: increased RR, TV and MV

Question: What about the “effect on the analgesic effect of fentanyl” value (Male Sprague-Dawley rats [5]; formalin pain model, fentanyl 0.045 mg/kg, result in words) of the same molecule?
Answer: did not counteract the analgesic effect of fentanyl

Question: What about the “Phase I (No. of flinching)” value (Male Sprague-Dawley rats [5]; [9]) of the same molecule?
Answer: 5

Question: What about the “Phase I (No. of flinching)” value (Male Sprague-Dawley rats [5]; [10]) of the same molecule?
Answer: 4

Question: And the “Phase II (No. of flinching)” value (Male Sprague-Dawley rats [5]; [9])?
Answer: 52

Question: And the “Phase II (No. of flinching)” value (Male Sprague-Dawley rats [5]; [10])?
Answer: 45

Question: And the “pain threshold 1 hr after the skin incision” value (Male Sprague-Dawley rats [6]; Compound (I) 3.0 mg/kg SC 15 min before incision + fentanyl 0.03 mg/kg SC)?
Answer: 28.5 g

Question: And the “pain threshold 1 hr after the skin incision” value (Male Sprague-Dawley rats [6]; Compound (I) 10 mg/kg SC 15 min before incision + fentanyl 0.03 mg/kg SC)?
Answer: 32.2 g

Question: And the “effect on the analgesic effect of fentanyl” value (Male Sprague-Dawley rats [6]; postoperative skin incision model, fentanyl 0.03 mg/kg, result in words)?
Answer: did not counteract the analgesic effect of fentanyl
